The source made the active and inactive calls. The rule behind the calls is not given here.

The source of these data is ChEMBL document CHEMBL5096239, “Two Binding Sites of SARS-CoV-2 Macrodomain 3 Probed by Oxaprozin and Meclomen” (J Med Chem, 2022).

In assay [1] the target is Replicase polyprotein 1a (Severe acute respiratory syndrome-related coronavirus, UniProt P0C6U8). Description: Binding affinity to 15N-labelled His6-tagged SARS-CoV Mac3 (527 to 652 residue) expressed in Escherichia coli Rosetta assessed as chemical shift perturbations by NMR HSQC spectral analysis.
The target of assay [2] is T1, Replicase polyprotein 1ab (Severe acute respiratory syndrome coronavirus 2, UniProt P0DTD1). Nature of the assay: Displacement of carboxyfluorescein-labelled p53-(dG)14 from SARS-CoV-2 Mac3 by fluorescence polarization analysis. Background: In fluorescence polarisation assays a small probe gives low polarisation when free and higher when bound to something large.
Assay [3] deals with T1, Replicase polyprotein 1ab. Nature of the assay: Binding affinity to 15N-labelled His6-tagged SARS-CoV-2 Mac3 (551 to 675 residues) expressed in Escherichia coli Rosetta assessed as chemical shift perturbations by NMR HSQC spectral analysis.
In assay [4] the target is Replicase polyprotein 1ab (Severe acute respiratory syndrome coronavirus 2) (UniProt P0DTD1). Nature of the assay: Binding affinity to 15N-labelled His6-tagged SARS-CoV-2 Mac3 (551 to 675 residues) expressed in Escherichia coli Rosetta assessed as chemical shift perturbations at binding site I (M630, Y634, V635, T636, and S660 residues) at ligand to protein molar ratio of 4:1 by NMR HSQC spectral analysis.

The target in assay [5] is Replicase polyprotein 1a (Severe acute respiratory syndrome-related coronavirus) (UniProt P0C6U8). Nature of the assay: Binding affinity to 15N-labelled His6-tagged SARS-CoV Mac3 (527 to 652 residue) expressed in Escherichia coli Rosetta assessed as chemical shift perturbations at binding site 1 (1556, T559, M606, T612, S636, and S637 residues) by NMR HSQC spectral analysis.

Assay [6] concerns the target T1, Replicase polyprotein 1ab. Nature of the assay: Displacement of carboxyfluorescein-labelled bbc3-(dG)14 from SARS-CoV-2 Mac3 by fluorescence polarization analysis.
In assay [7] the target is Replicase polyprotein 1a (Severe acute respiratory syndrome-related coronavirus) (UniProt P0C6U8). Nature of the assay: Binding affinity to 15N-labelled His6-tagged SARS-CoV Mac3 (527 to 652 residue) expressed in Escherichia coli Rosetta assessed as chemical shift perturbations at binding site 1 (C550, V553, 1556, and M606 residues) by NMR HSQC spectral analysis.
Assay [8] has as its target Replicase polyprotein 1ab (Severe acute respiratory syndrome coronavirus 2) (UniProt P0DTD1). Description: Binding affinity to 15N-labelled His6-tagged SARS-CoV-2 Mac3 (551 to 675 residues) expressed in Escherichia coli Rosetta assessed as chemical shift perturbations at binding site II (Q594, E595, S609, and M630 residues) at ligand to protein molar ratio of 4:1 by NMR HSQC spectral analysis.

For `Cc1ccc(Cl)c(Nc2ccccc2C(=O)O)c1Cl` [MECLOFENAMIC ACID], the equilibrium dissociation constant (Kd) (usually the concentration at which binding is half-saturated) in assay [1] was 220 µM; in assay [3], 0.9 mM. Further, the inhibition constant Ki – broadly, the equilibrium dissociation constant of an inhibitor or competing ligand from its target – is 200 µM in assay [2] and 50 µM in assay [6]. Moreover, the outcome in assay [4] and in assay [5] was Active.
With `O=C(O)CCc1nc(-c2ccccc2)c(-c2ccccc2)o1` [OXAPROZIN], the equilibrium dissociation constant (Kd) in assay [1] was found to be 1000 µM; in assay [3] it was 1.2 mM. Moreover, the result in assay [7] and in assay [8] was Active. Moreover, the results for the inhibitory constant (Ki) in assay [2] and in assay [6] were 900 µM and 400 µM, respectively.
